In patent US20200360647A1, “Use Of Inhaled Nitric Oxide For The Improvement Of Right And/Or Left Ventricular Function” (Bellerophon Pulse Technologies LLC, priority 2017, published 2020):
Where “and” joins values, the source holds several entries; their conditions need not be identical. Equal values may be shown once.

Tests used:
Type in all cases: in vivo, human
subjects with PH-COPD [1] = experiment: TAPSE (RV function) during chronic pulsed iNO therapy, PH-COPD study; design: TAPSE Increase: unit not given beside the values
Source text: (§1) Maintenance and/or improvements in RV function can be assessed by many echocardiographic measurements. One such quantitative approach to assess RV function is the measurement of the TAPSE. The TAPSE estimates RV systolic function by measuring the level of systolic excursion of the lateral tricuspid valve annulus towards the apex. An excellent correlation between the TAPSE and RV ejection fraction as assessed by radionuclide angiography has previously been established and the approach appears reproducible and proven to be a strong predictor of prognosis in heart failure. [Reference: Heart. 2006 April; 92(Suppl 1): i19-i26.]
(§2) This study is an open label Phase 1 study of iNO therapy in subjects with PH-COPD (PULSE-COPD-007; NCT03135860). The primary outcome of this study is the change in lobar blood volume at total lung capacity with iNO and the change in lobar blood volume with iNO after 4 weeks of treatment with iNO as measured by HRCT.
(§3) Subjects also had sPAP≥38 mm Hg as measured by echocardiogram, a post-bronchodilatory FEV1/FVC<0.7 and a FEV1<60% predicted. All subjects were at least 40 years old and were current or former smokers with at least 10 pack-years of tobacco cigarette smoking before study entry. All subjects also had been receiving LTOT for at least 3 months for at least 10 hours per day.
(§4) The PH-COPD subjects received pulsed iNO therapy for 4 weeks for at least 12 hours/day. The iNO was administered utilizing a 4,880 ppm NO cylinder concentration.
These subjects were diagnosed with PH-COPD and received 4 weeks of treatment with iNO at a dose of 30 mcg/kg IBW/hr. The results verify the increase in TAPSE which correlates to RV function.

[2] = test system: subjects with PH-IPF on LTOT; experiment: sPAP by echocardiogram, acute iNO, PH-IPF study; settings: iNO 75 mcg/kg IBW/hr, individual patients (Patient 1, Patient 2)
Source text: This study was an exploratory, three-part, clinical study to assess the effect of pulsed iNO on functional pulmonary imaging parameters in subjects with PH-COPD on LTOT (Part 1) PH-IPF on LTOT (Part 2 and Part 3) (IK-7002-COPD-006; NCT02267655). The objective of this exploratory study was to examine the utility of high resolution computed tomography (HRCT) to measure changes in functional respiratory imaging parameters as a function of short term iNO administration using a pulsed NO delivery device in subjects with PH-IPF (Part 2 and Part 3) on LTOT. The primary endpoint in this exploratory study is the change from baseline in lobar blood volume at total lung capacity (TLC) after dosing with pulsed iNO (Part 1), iNO or Placebo (Part 2a) and after 4 weeks iNO treatment (Part 3b) as measured by HRCT. […]
(§5) The 2 subjects enrolled in Part 3a each received three different doses of iNO utilizing NO cylinder concentration (4,880 ppm) at a dose of 5 mcg/kg IBW/hr, 10 mcg/kg IBW/hr and 30 mcg/kg IBW/hr, all with LTOT. For each dose, the change in PAP pressure and the change in cardiac output was evaluated by RHC. […]
During the chronic phase, the vasodilation and the hemodynamics were assessed. […] Both the acute and chronic phases evaluated iNO doses of 30 and 75 mcg/kg IBW/hr.

subjects with PH-COPD [3] = experiment: sPAP by echocardiogram during chronic iNO therapy, PH-COPD study
Source text: as §2, §3, §4
A further analysis was performed of seven PH-COPD subjects that completed 4 weeks of treatment with iNO at a dose of 30 mcg/kg IBW/hr. […]

subjects with PH-COPD [4] = experiment: Six-minute walk distance (6MWD) during chronic iNO therapy, PH-COPD study; settings: iNO 30 mcg/kg IBW/hr, individual subjects #1-#7
Source text: as §2, §3, §4
(§6) A further analysis was performed of seven PH-COPD subjects that completed 4 weeks of treatment with iNO at a dose of 30 mcg/kg IBW/hr.

subjects with PH-COPD [5] = experiment: HRCT blood vessel volume, acute iNO, PH-COPD study (PULSE-COPD-007); settings: individual subjects #1-#7
Source text: as §2, §3, §4, §6

[6] = test system: subjects with PH-IPF on LTOT; experiment: TAPSE (RV function) during chronic pulsed iNO therapy, PH-IPF study
Source text: as §1
The secondary endpoints of Part 2a (acute; placebo vs. iNO 75 mcg/kg IBW/hr) were change in Borg CR10 leg fatigue and dyspnea scale, changes in breathing questionnaire and changes in right ventricular and left ventricular function.
One patient from Part 2a entered into Part 2b. During Part 2b patient receive iNO utilizing NO cylinder concentration (4,880 ppm) at a dose of 75 mcg/kg IBW/hr during 4 weeks for at least 12 hours/day.
The 2 patients from Part 3a entered Part 3b. During Part 3b, patients received iNO utilizing NO cylinder concentration (4,880 ppm) at a dose of 30 mcg/kg IBW/hr.
Subject 1 received pulsed iNO at a dose of 75 mcg/kg IBW/hr for 4 weeks, and Subject 3 received pulsed iNO at a dose of 30 mcg/kg IBW/hr for 4 weeks.

[7] = test system: subjects with PH-IPF on LTOT; experiment: Safety and tolerability of iNO dose, PH-IPF study
Experimental: The safety endpoints in this study were: • a. Incidence and severity of treatment emergent adverse events (AEs), including those related to device deficiency; • b. Incidence of MetHb levels>7.0%; • c. New symptoms that may be due to rebound PH associated with a temporal acute withdrawal of investigational study drug (i.e., symptoms occurring within 20 minutes of acute withdrawal and including those associated with investigational medical device malfunction or failure): systemic arterial oxygen desaturation, hypoxemia, bradycardia, tachycardia, systemic hypotension, near-syncope, syncope, ventricular fibrillation, and/or cardiac arrest; • d. New or worsening symptoms of left heart failure or pulmonary edema; and • e. Any decrease in systemic oxygenation measured by oxygen saturation of arterial blood by pulse oximetry (SpO2), i.e., hypoxia or oxygen saturation decrease, deemed by the Investigator to be clinically significant.
The initial protocol intended that 4 subjects would be enrolled in Part 2. […] It was decided to temporarily stop recruitment. One of the 2 subjects completed 4 weeks of chronic use in Part 2b.
In the amendment a total of 2 subjects participated in Part 3. The dose in Part 3 was lower than in Part 2 and each subject was titrated to the optimum dose as determined by the investigator. […] The dose was monitored with a RHC in place. […]

[8] = test system: subjects with PH-IPF on LTOT; experiment: HRCT blood vessel volume, acute iNO, PH-IPF study (IK-7002-COPD-006); settings: iNO 75 mcg/kg IBW/hr, individual patients (Patient 1, Patient 2)
Source text: This study was an exploratory, three-part, clinical study to assess the effect of pulsed iNO on functional pulmonary imaging parameters in subjects with PH-COPD on LTOT (Part 1) PH-IPF on LTOT (Part 2 and Part 3) (IK-7002-COPD-006; NCT02267655). The objective of this exploratory study was to examine the utility of high resolution computed tomography (HRCT) to measure changes in functional respiratory imaging parameters as a function of short term iNO administration using a pulsed NO delivery device in subjects with PH-IPF (Part 2 and Part 3) on LTOT. The primary endpoint in this exploratory study is the change from baseline in lobar blood volume at total lung capacity (TLC) after dosing with pulsed iNO (Part 1), iNO or Placebo (Part 2a) and after 4 weeks iNO treatment (Part 3b) as measured by HRCT.
This was an exploratory clinical study to evaluated the utility of HRCT to measure the pharmacodynamic effects of short term pulsed administration of iNO using a pulsed NO delivery device in subjects with PH-IPF (Part 2 and Part 3) on LTOT. […]
as §5

[9] = iNO 30 mcg/kg IBW/hr for 4 weeks, average of four subjects, vs baseline
[10] = iNO 30 mcg/kg IBW/hr for 4 weeks, vs baseline, individual subjects (1, 6, 7, 12)
[11] = group value, vs baseline 60.3 mm Hg, p=0.02
[12] = iNO 30 mcg/kg IBW/hr, 4 weeks vs baseline, individual subjects #1-#7
[13] = PH-IPF Subject 1, pulsed iNO 75 mcg/kg IBW/hr for 4 weeks, vs baseline
[14] = PH-IPF Subject 3, pulsed iNO 30 mcg/kg IBW/hr for 4 weeks, vs baseline
[15] = PH-IPF, average of Subject 1 (75) and Subject 3 (30 mcg/kg IBW/hr), 4 weeks, vs baseline

For `[N]=O` [iNO, nitric oxide], the “TAPSE after iNO therapy was discontinued” value (subjects with PH-COPD [1]; group value, N=5 (FIG. 7)) was 19.0, the “TAPSE 4 Week, Average” value (subjects with PH-COPD [1]; iNO 30 mcg/kg IBW/hr for 4 weeks, average of four subjects, baseline 16) was 20 and the “TAPSE % Change, Average” value (subjects with PH-COPD [1]; [9]) was 25%. For the same compound, the “TAPSE Increase, Average” value (subjects with PH-COPD [1]; [9]) was 4, the “TAPSE 4 Week” value (subjects with PH-COPD [1]; iNO 30 mcg/kg IBW/hr for 4 weeks, individual subjects (1, 6, 7, 12)) was 14 and 18 (2×) and 28 and the “TAPSE % Change” value (subjects with PH-COPD [1]; [10]) was 0% and 67% and 22% and 13%. The “TAPSE Increase” value (subjects with PH-COPD [1]; [10]) was 0 and 7 and 5 and 2, the “Acute Change in sPAP (%)” value [2] was −9.3% and −9.7% and the “sPAP 4 weeks after iNO therapy was discontinued” value (subjects with PH-COPD [3]; group value (FIG. 6)) was 58.0 mm Hg. For the same compound, the “sPAP drop after 4 weeks of iNO therapy” value (subjects with PH-COPD [3]; [11]) was 12.0 mm Hg, the “sPAP drop after 4 weeks of iNO therapy (%)” value (subjects with PH-COPD [3]; [11]) was 19.9% and the “sPAP, 4 weeks iNO” value (subjects with PH-COPD [3]; iNO 30 mcg/kg IBW/hr for 4 weeks, individual subjects #1-#7) was 69 mm Hg and 37 mm Hg and 40 mm Hg and 74 mm Hg and 30 mm Hg and 34 mm Hg and 54 mm Hg. The “Change sPAP (mm Hg)” value (subjects with PH-COPD [3]; [12]) was −25 mm Hg and −10 mm Hg (2×) and −15 mm Hg and −4 mm Hg and −12 mm Hg and −8 mm Hg, the “sPAP % Change” value (subjects with PH-COPD [3]; [12]) was −27% (2×) and −21% and −5% and −25% and −26% and −13% and the “6MWD Change from Baseline, 2 weeks iNO” value (subjects with PH-COPD [4]; 2 weeks vs baseline) was “+135 meters and +79 meters and +15 meters and +35 meters and +25 meters and +57 meters and +32 meters”. The “6MWD, 2 weeks iNO” value (subjects with PH-COPD [4]; 2 weeks) was 335 meters and 263 meters and 493 meters and 115 meters and 495 meters and 400 meters and 173 meters, the “6MWD Change from Baseline, 4 weeks iNO” value (subjects with PH-COPD [4]; 4 weeks vs baseline) was “+135 meters and +11 meters and +2 meters and −3 meters and +28 meters and +80 meters and +100 meters” and the “6MWD, 4 weeks iNO” value (subjects with PH-COPD [4]; 4 weeks) was 335 meters and 195 meters and 480 meters and 77 meters and 498 meters and 423 meters and 242 meters. For the same compound, the “Acute change in Blood Vessel Volume %” value (subjects with PH-COPD [5]) was 6.2 ± 1.6% and 3.3 ± 2.1% and 6.6 ± 4.5% and 9.7 ± 3.5% and −1.0 ± 4.0% and 2.7 ± 0.4%, the “TAPSE % Change” value [6, 13] was 21% and the “TAPSE Increase” value [6, 13] was 3. For the same compound, the “TAPSE % Change” value [6, 14] was 12%, the “TAPSE Increase” value [6, 14] was 4 and the “TAPSE % Change, Average” value [6, 15] was 15%. For the same compound, the “TAPSE Increase, Average” value [6, 15] was 3, the “TAPSE 4 Week, Average” value ([6]; PH-IPF, average of Subject 1 (75 mcg/kg IBW/hr) and Subject 3 (30 mcg/kg IBW/hr), 4 weeks, baseline 20) was 23 and the “Safety of dose titration monitored with RHC” value ([7]; 2 PH-IPF subjects of Part 3, titrated 5, 10, 30 mcg/kg IBW/hr) was “could titrate to iNO at a dose of 30 mcg/kg IBW/hr safely”. The “PAP after discontinuation of iNO” value ([7]; two PH-IPF patients of Part 2, iNO 75 mcg/kg IBW/hr) was “sudden increase in PAP after discontinuation” and the “Acute change in Blood Vessel Volume %” value [8] was 14.0 ± 4.7% and 34.2 ± 7.6%.
